Test results taken from US5827655A (priority 1995, dated 1998).

Assays:
type n K+ channel (mice) = settings: Table I, type n currents, mouse T cells; read-out: Blockers, half-blocking dose; cited from earlier work
[1] = test system: type n K+ channel (human); settings: Table I, type n currents, human T cells; read-out: Blockers, half-blocking dose; cited from earlier work
MK3 K+ channels = biological target: T1, MK3 K+ channels (Mus musculus, UniProt P16390); experiment: cell-based
T1 construct: The MK3 coding region was inserted into the pSP64T cloning vector; expressed in transfected cells; host or cells: Xenopus oocytes injected with MK3 mRNA (in vitro transcript from pSP64T)
T1 sequence (P16390 whole entry): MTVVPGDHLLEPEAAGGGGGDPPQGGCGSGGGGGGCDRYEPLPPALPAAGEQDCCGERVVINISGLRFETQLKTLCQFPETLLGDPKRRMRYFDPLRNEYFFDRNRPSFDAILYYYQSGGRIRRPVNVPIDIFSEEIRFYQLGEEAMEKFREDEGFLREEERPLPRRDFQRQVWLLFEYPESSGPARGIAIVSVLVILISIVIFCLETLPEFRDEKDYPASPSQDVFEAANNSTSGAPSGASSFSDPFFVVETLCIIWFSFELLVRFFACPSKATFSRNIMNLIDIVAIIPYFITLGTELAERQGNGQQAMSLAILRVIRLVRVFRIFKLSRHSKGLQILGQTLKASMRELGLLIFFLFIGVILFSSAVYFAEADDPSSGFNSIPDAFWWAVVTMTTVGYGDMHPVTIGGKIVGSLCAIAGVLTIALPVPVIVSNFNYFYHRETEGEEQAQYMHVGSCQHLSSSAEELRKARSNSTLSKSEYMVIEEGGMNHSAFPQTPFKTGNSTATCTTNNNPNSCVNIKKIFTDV
Protocol: Electrophysiology. Experiments were carried out on Xenopus oocytes with two-electrode voltage-clamp and patch-clamp techniques (17). All experiments were done at room temperature (22°-26° C.). […] The pipette solution was 3M KCl.
The patch-clamp amplifier (List L/M-EPC 7, Adams and List Associates, Ltd., Great Neck, N.Y.) was used in the voltage-clamp mode without series resistance compensation. Patch-clamp electrodes were pulled from Accu-fill 90 Micropets (Becton, Dickinson & Co., Parsippany, N.J.) in three stages, coated with Sylgard (Dow Corning Corp., Midland, Mich.) and fire-polished to resistances, measured in the bath, of 2-7M. In all patch-clamp experiments, the command input of the patch-clamp amplifier was controlled by a computer (PDP 11/73) via a digital-analog converter, and membrane currents were recorded at a band-width of 2 kHz. The holding potential was adjusted in all experiments to E=-80 mV. Correction for capacitative currents was achieved by analog subtraction. […] Due to this run-down the potency of all blockers was determined as the reduction of the mean K^+ current before and after drug treatment.
Xenopus oocytes express a high density of voltage-activated K^+ channels following injection of 70 nl of 0.01 /μg/μl MK3 mRNA. […] Outside-out patches of oocyte membrane (70 nl of 0.1 μg/μl MK3 mRNA injected) were used for measurement of gating kinetics, pharmacological sensitivity, and single channel properties.

## Nc1ccncc1 [4-AP, 4-aminopyridine]
Type n K+ channel (mice)
  IC50: […]
[1]
  IC50: 0.19 mM

## CC[N+](CC)(CC)CC [TEA, tetraethylammonium]
MK3 K+ channels; FIG. 3C, outside-out patch, oocyte injected with MK3 mRNA, read-out: Kd, dose-response curve of drugs blocking MK3 K+ current
  Kd: 11 mM
MK3 K+ channels; Table I, MK3 currents in oocytes, read-out: Blockers, half-blocking dose
  IC50: 11 mM

## Charybdotoxin [CTX]
MK3 K+ channels; CTX from both sources (C. Miller and M. Garcia)
  Block of MK3 channels in oocytes (in words): blocked MK3 channels in oocytes
